# Source: ChEMBL document CHEMBL4622979, “Non-rigid Diarylmethyl Analogs of Baloxavir as Cap-Dependent Endonuclease Inhibitors of Influenza Viruses” (J Med Chem, 2020)
# Tests used:
# [1] = Cmax in CD1 mouse plasma assessed as baloxavir acid level at 15 mg/kg, po administered as single dose by LC-MS/MS analysis; format: ADME, organism-based; parameters: dose 15 mg/kg, route oral; conditions: in vivo
# [2] = Cmax in CD1 mouse blood assessed as baloxavir acid level at 15 mg/kg, po administered as single dose measured up to 24 hrs by LC-MS/MS analysis; format: ADME, organism-based; parameters: dose 15 mg/kg, route oral; conditions: in vivo
# [3] = Ratio of AUClast in CD1 mouse blood to plasma assessed as baloxavir acid level at 15 mg/kg, po administered as single dose measured up to 24 hrs by LC-MS/MS analysis; format: ADME, organism-based; conditions: in vivo
# [4] = AUCinfinity in CD1 mouse liver assessed as baloxavir acid level at 15 mg/kg, po administered as single dose measured up to 24 hrs by LC-MS/MS analysis; format: ADME, organism-based; parameters: dose 15 mg/kg, route oral, time infinity; conditions: in vivo
# [5] = AUClast in CD1 mouse kidney assessed as baloxavir acid level at 15 mg/kg, po administered as single dose measured up to 24 hrs by LC-MS/MS analysis; format: ADME, organism-based; conditions: in vivo
# [6] = Half life in CD1 mouse heart assessed as baloxavir acid level at 15 mg/kg, po administered as single dose measured up to 24 hrs by LC-MS/MS analysis; format: ADME, organism-based; conditions: in vivo
# [7] = Ratio of AUClast in CD1 mouse heart to plasma assessed as baloxavir acid level at 15 mg/kg, po administered as single dose measured up to 24 hrs by LC-MS/MS analysis; format: ADME, organism-based; conditions: other tissue
# [8] = Cmax in CD1 mouse lung assessed as baloxavir acid level at 15 mg/kg, po administered as single dose measured up to 24 hrs by LC-MS/MS analysis; format: ADME, organism-based; parameters: dose 15 mg/kg, route oral; conditions: in vivo
# [9] = AUCinfinity in CD1 mouse small intestine assessed as baloxavir acid level at 15 mg/kg, po administered as single dose measured up to 24 hrs by LC-MS/MS analysis; format: ADME, organism-based; parameters: dose 15 mg/kg, route oral, time infinity; conditions: in vivo
# [10] = MRTlast in CD1 mouse small intestine assessed as baloxavir acid level at 15 mg/kg, po administered as single dose measured up to 24 hrs by LC-MS/MS analysis; format: ADME, organism-based; conditions: in vivo
# [11] = MRTlast in CD1 mouse brain assessed as baloxavir acid level at 15 mg/kg, po administered as single dose measured up to 24 hrs by LC-MS/MS analysis; format: ADME, organism-based; conditions: in vivo
# [12] = Ratio of AUClast in CD1 mouse brain to plasma assessed as baloxavir acid level at 15 mg/kg, po administered as single dose measured up to 24 hrs by LC-MS/MS analysis; format: ADME, organism-based
# [13] = AUClast in CD1 mouse spleen assessed as baloxavir acid level at 15 mg/kg, po administered as single dose measured up to 24 hrs by LC-MS/MS analysis; format: ADME, organism-based; conditions: in vivo
# [14] = Cytotoxicity against human MRC5 cells assessed as reduction in cell viability by ATP bioluminescence assay; format: cell-based
# [15] = Ratio of Cmax in CD1 mouse lung to plasma assessed as (12aR)-12-(Diphenylmethyl)-7-hydroxy-3,4,12,12a-tetrahydro-1H-[1,4]oxazino[3,4-c]pyrido[2,1-f ][1,2,4]triazine-6,8-dione level at 15 mg/kg, po administered as single dose by LC-MS/MS analysis; format: ADME, organism-based; conditions: other tissue
# [16] = Half life in CD1 mouse plasma assessed as (12aR)-12-(Diphenylmethyl)-7-hydroxy-3,4,12,12a-tetrahydro-1H-[1,4]oxazino[3,4-c]pyrido[2,1-f ][1,2,4]triazine-6,8-dione level at 15 mg/kg, po administered as single dose measured up to 24 hrs by LC-MS/MS analysis; format: ADME, organism-based; conditions: in vivo
# [17] = AUClast in CD1 mouse plasma assessed as (12aR)-12-(Diphenylmethyl)-7-hydroxy-3,4,12,12a-tetrahydro-1H-[1,4]oxazino[3,4-c]pyrido[2,1-f ][1,2,4]triazine-6,8-dione level at 15 mg/kg, po administered as single dose measured up to 24 hrs by LC-MS/MS analysis; format: ADME, organism-based; parameters: dose 15 mg/kg, time < 24 hr, route oral; conditions: in vivo
# [18] = Elimination rate constant in CD1 mouse blood assessed as (12aR)-12-(Diphenylmethyl)-7-hydroxy-3,4,12,12a-tetrahydro-1H-[1,4]oxazino[3,4-c]pyrido[2,1-f ][1,2,4]triazine-6,8-dione level at 15 mg/kg, po administered as single dose measured up to 24 hrs by LC-MS/MS analysis; format: ADME, organism-based; conditions: in vivo
# [19] = AUCinfinity in CD1 mouse heart assessed as (12aR)-12-(Diphenylmethyl)-7-hydroxy-3,4,12,12a-tetrahydro-1H-[1,4]oxazino[3,4-c]pyrido[2,1-f ][1,2,4]triazine-6,8-dione level at 15 mg/kg, po administered as single dose measured up to 24 hrs by LC-MS/MS analysis; format: ADME, organism-based; parameters: dose 15 mg/kg, time infinity, route oral; conditions: in vivo
# [20] = Tmax in CD1 mouse lung assessed as (12aR)-12-(Diphenylmethyl)-7-hydroxy-3,4,12,12a-tetrahydro-1H-[1,4]oxazino[3,4-c]pyrido[2,1-f ][1,2,4]triazine-6,8-dione level at 15 mg/kg, po administered as single dose measured up to 24 hrs by LC-MS/MS analysis; format: ADME, organism-based; conditions: in vivo
# [21] = AUClast in CD1 mouse trachea assessed as (12aR)-12-(Diphenylmethyl)-7-hydroxy-3,4,12,12a-tetrahydro-1H-[1,4]oxazino[3,4-c]pyrido[2,1-f ][1,2,4]triazine-6,8-dione level at 15 mg/kg, po administered as single dose measured up to 24 hrs by LC-MS/MS analysis; format: ADME, organism-based; conditions: in vivo
# [22] = Cmax in CD1 mouse brain assessed as (12aR)-12-(Diphenylmethyl)-7-hydroxy-3,4,12,12a-tetrahydro-1H-[1,4]oxazino[3,4-c]pyrido[2,1-f ][1,2,4]triazine-6,8-dione level at 15 mg/kg, po administered as single dose measured up to 24 hrs by LC-MS/MS analysis; format: ADME, organism-based; parameters: dose 15 mg/kg, route oral; conditions: in vivo
# [23] = Half life in CD1 mouse spleen assessed as (12aR)-12-(Diphenylmethyl)-7-hydroxy-3,4,12,12a-tetrahydro-1H-[1,4]oxazino[3,4-c]pyrido[2,1-f ][1,2,4]triazine-6,8-dione level at 15 mg/kg, po administered as single dose measured up to 24 hrs by LC-MS/MS analysis; format: ADME, organism-based; conditions: in vivo
# [24] = Cmax in CD1 mouse spleen assessed as (12aR)-12-(Diphenylmethyl)-7-hydroxy-3,4,12,12a-tetrahydro-1H-[1,4]oxazino[3,4-c]pyrido[2,1-f ][1,2,4]triazine-6,8-dione level at 15 mg/kg, po administered as single dose measured up to 24 hrs by LC-MS/MS analysis; format: ADME, organism-based; parameters: dose 15 mg/kg, route oral; conditions: in vivo
# [25] = Elimination rate constant in CD1 mouse muscle assessed as (12aR)-12-(Diphenylmethyl)-7-hydroxy-3,4,12,12a-tetrahydro-1H-[1,4]oxazino[3,4-c]pyrido[2,1-f ][1,2,4]triazine-6,8-dione level at 15 mg/kg, po administered as single dose measured up to 24 hrs by LC-MS/MS analysis; format: ADME, organism-based, Muscle tissue; conditions: in vivo
# [26] = AUCinfinity in CD1 mouse muscle assessed as (12aR)-12-(Diphenylmethyl)-7-hydroxy-3,4,12,12a-tetrahydro-1H-[1,4]oxazino[3,4-c]pyrido[2,1-f ][1,2,4]triazine-6,8-dione level at 15 mg/kg, po administered as single dose measured up to 24 hrs by LC-MS/MS analysis; format: ADME, organism-based, Muscle tissue; parameters: dose 15 mg/kg, route oral, time infinity; conditions: in vivo
# [27] = Stability in mouse plasma assessed as parent compound remaining at 1 uM measured after 4 hrs by LC-MS/MS analysis; format: ADME, cell-free; conditions: read-out: Stability
structure (smiles),measurement,setting,value
COC(=O)OCOc1c2n(ccc1=O)N([C@@H]1c3ccccc3SCc3c1ccc(F)c3F)[C@@H]1COCCN1C2=O [BALOXAVIR MARBOXIL],Cmax,[1],141 ng/mL
same,Cmax,[2],215 ng/g
same,Ratio AUC,[3],3.05
same,AUC,[4],85348 ng·h/g
same,AUClast,[5],21162 ng·h/g
same,t1/2,[6],3.4 h
same,Ratio AUC,[7],19.8
same,Cmax,[8],1188 ng/g
same,AUC,[9],106028 ng·h/g
same,MRTlast,[10],1.58 h
same,MRTlast,[11],8.42 h
same,Ratio AUC,[12],0.7
same,AUClast,[13],3611 ng·h/g
COC(=O)OCOc1c2n(ccc1=O)N(C(c1ccccc1)c1ccccc1)[C@@H]1COCCN1C2=O,CC50,[14],> 100 µM
same,Ratio,[15],2.2
same,t1/2,[16],1.58 h
same,AUClast,[17],3287 ng·h/mL
same,Kel,[18],0.4 h⁻¹
same,AUC,[19],11444 ng·h/g
same,Tmax,[20],30 min
same,AUClast,[21],10575 ng·h/g
same,Cmax,[22],98 ng/g
same,t1/2,[23],1.77 h
same,Cmax,[24],1119 ng/g
same,Kel,[25],0.4 h⁻¹
same,AUC,[26],7693 ng·h/g
same,"remaining at 4 h, 1 µM",[27],0%
